How the values were obtained:
human mGluR1 = human mGluR1 (Homo sapiens (Human), UniProt Q13255); experiment: mGluR1 antagonism, L-glutamate induced intracellular calcium increase (FLIPR) in CHO cells stably expressing human mGluR1; format: cell-based; details: for IC50: L-glutamate induced intracellular calcium, CHO cells expressing human mGluR1, FLIPR
Description: Activity of compounds of the present invention with respect to mGluR1 antagonism was examined by an assay based on measurements of L-glutamate induced intracellular calcium increases using a 96 well plate-based Fluorometric Imaging Plate Reader (FLIPR), and CHO cells stably expressing human mGluR1. L-glutamate induced robust calcium responses via human mGluR1 in a concentration-dependent manner and in the low micromolar range. The table below represents IC50 values of the inhibition of the glutamate-induced elevation of the intracellular calcium concentration.

human mGluR5a receptors = human mGluR5a receptors (Homo sapiens (Human), UniProt P41594); experiment: inhibition of glutamate-induced elevation of intracellular calcium in L(tk-) cells expressing human mGluR5a; format: cell-based; details: for IC50: glutamate-induced intracellular calcium elevation, L(tk-) cells expressing human mGluR5a, read-out: mGluR5 IC50; for inhibition at 10 µM: LTK, read-out: mGluR5 % inhibition at 10 μM
Sequence of human mGluR5a receptors (P41594 other isoform, or with tags, fused parts or gaps): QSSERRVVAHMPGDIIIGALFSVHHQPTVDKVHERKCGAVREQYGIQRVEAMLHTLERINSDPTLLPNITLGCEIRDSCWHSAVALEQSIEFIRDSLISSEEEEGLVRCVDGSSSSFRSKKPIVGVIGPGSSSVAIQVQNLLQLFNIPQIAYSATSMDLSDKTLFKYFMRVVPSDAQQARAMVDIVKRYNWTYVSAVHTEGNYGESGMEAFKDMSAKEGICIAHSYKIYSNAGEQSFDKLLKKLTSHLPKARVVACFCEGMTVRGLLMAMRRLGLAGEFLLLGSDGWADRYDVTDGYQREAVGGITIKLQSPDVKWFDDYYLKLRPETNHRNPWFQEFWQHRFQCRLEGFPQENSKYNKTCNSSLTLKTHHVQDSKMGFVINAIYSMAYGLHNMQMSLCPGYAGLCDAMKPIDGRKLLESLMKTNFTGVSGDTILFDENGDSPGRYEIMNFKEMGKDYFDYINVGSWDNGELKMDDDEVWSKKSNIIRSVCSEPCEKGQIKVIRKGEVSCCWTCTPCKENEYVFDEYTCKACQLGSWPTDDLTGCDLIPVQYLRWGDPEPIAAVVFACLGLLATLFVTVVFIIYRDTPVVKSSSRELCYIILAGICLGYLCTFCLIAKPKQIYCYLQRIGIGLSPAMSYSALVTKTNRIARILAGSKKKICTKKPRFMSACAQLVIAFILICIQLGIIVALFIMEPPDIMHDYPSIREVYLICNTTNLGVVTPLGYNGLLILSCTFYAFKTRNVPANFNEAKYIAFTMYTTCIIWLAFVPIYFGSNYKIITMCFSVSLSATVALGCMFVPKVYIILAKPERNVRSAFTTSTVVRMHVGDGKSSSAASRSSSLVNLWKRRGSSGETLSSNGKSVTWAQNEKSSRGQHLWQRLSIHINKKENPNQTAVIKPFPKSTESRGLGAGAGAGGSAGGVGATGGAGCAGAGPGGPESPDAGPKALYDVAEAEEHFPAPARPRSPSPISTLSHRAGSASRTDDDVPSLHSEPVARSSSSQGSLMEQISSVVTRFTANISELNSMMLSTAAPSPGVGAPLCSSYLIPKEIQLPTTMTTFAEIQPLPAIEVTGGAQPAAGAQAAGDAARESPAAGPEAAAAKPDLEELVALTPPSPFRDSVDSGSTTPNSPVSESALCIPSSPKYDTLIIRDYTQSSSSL
Description: Activity of compounds of the present invention was examined by determination to what extent the glutamate-induced elevation of the intracellular calcium concentration in L(tk-) cells expressing human mGluR5a receptors (see L. P. Daggett et al., Neuropharm. Vol. 34, pages 871-886, 1995) is inhibited by utilizing methods as described e.g. by L. P. Daggett et al., Neuropharm. Vol. 34, pages 871-886 (1995) and P. J. Flor et al., J. Neurochem. Vol. 67, pages 58-63 (1996).

Sequence of human mGluR1 (Q13255 19-1194): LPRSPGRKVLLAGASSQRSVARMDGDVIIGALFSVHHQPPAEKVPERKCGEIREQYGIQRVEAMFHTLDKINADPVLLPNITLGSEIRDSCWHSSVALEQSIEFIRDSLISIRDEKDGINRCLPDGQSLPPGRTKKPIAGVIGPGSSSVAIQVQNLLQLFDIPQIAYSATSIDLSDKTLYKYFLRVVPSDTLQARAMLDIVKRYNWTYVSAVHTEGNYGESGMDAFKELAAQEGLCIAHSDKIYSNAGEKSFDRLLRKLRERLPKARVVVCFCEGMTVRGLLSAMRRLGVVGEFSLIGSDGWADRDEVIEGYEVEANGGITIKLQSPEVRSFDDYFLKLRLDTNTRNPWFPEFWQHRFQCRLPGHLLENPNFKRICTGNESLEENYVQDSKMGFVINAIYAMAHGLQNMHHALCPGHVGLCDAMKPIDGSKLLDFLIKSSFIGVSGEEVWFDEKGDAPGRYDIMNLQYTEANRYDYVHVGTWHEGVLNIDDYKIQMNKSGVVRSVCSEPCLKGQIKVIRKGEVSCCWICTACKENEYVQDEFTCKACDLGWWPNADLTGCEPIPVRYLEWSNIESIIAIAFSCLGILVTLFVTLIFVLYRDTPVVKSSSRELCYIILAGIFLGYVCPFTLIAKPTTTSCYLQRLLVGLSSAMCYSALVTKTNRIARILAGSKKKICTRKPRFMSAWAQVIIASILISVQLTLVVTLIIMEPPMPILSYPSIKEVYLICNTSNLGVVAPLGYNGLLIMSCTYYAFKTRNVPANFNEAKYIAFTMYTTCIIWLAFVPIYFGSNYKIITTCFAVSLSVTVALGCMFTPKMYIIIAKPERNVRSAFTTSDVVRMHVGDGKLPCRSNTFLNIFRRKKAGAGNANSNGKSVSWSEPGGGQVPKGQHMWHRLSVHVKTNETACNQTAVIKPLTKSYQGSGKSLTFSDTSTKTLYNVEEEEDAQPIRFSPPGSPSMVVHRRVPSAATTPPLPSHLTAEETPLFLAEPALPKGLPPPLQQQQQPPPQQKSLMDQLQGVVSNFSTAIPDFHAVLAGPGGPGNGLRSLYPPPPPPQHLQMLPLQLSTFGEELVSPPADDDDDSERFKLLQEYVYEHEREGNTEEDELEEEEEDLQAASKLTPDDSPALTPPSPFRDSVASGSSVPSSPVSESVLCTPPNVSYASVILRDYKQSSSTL

Row | Compound | IC50 (human mGluR1) [nM] | IC50 (human mGluR5a receptors) [nM] | inhibition at 10 µM (human mGluR5a receptors) [%] | inhibition at 10 µM (human mGluR1; CHO) [%]
1 | CCc1cn(C2=NCC(=O)N3CCc4c(cccc4C4CCCO4)C3=C2)cn1 (racemic) [Example 111, 2-(4-ethyl-1H-imidazol-1-yl)-9-(tetrahydrofuran-2-yl)-7,8-dihydro-[1,4]diazepino[7,1-a]isoquinolin-5(4H)-one] | 9300 | 53 | – | –
2 | CCc1cn(C2=NCC(=O)N3CCc4c(cccc4C4(O)COC4)C3=C2)cn1 [2-(4-ethyl-1H-imidazol-1-yl)-9-(3-hydroxyoxetan-3-yl)-7,8-dihydro-[1,4]diazepino[7,1-a]isoquinolin-5(4H)-one] | – | – | < 20 | –
3 | Cc1ccnn1C1=NCC(=O)N2CCc3c(Cl)cccc3C2=C1 [9-chloro-2-(5-methyl-1H-pyrazol-1-yl)-7,8-dihydro-[1,4]diazepino[7,1-a]isoquinolin-5(4H)-one] | – | – | < 20 | –
4 | COc1cccc(C2=NCC(=O)N3CCc4c(OC)cccc4C3=C2)c1 [Example 1, 9-methoxy-2-(3-methoxyphenyl)-7,8-dihydro-[1,4]diazepino[7,1-a]isoquinolin-5(4H)-one] | 6400 | 327 | – | –
5 | O=C1CN=C(c2cccs2)C=C2c3cccc(Cl)c3CCN12 [Example 2, 9-chloro-2-(thiophen-2-yl)-7,8-dihydro-[1,4]diazepino[7,1-a]isoquinolin-5(4H)-one] | 27 | 90 | – | –
6 | COc1cccc(C2=NCC(=O)N3CCc4c(Cl)cccc4C3=C2)c1 [Example 3, 9-chloro-2-(3-methoxyphenyl)-7,8-dihydro-[1,4]diazepino[7,1-a]isoquinolin-5(4H)-one] | 585 | 220 | – | –
7 | O=C1CN=C(c2cccs2)C=C2c3cccc(C(F)(F)F)c3CCN12 [Example 4, 2-(thiophen-2-yl)-9-(trifluoromethyl)-7,8-dihydro-[1,4]diazepino[7,1-a]isoquinolin-5(4H)-one] | 150 | 180 | – | –
8 | COc1cccc2c1CCN1C(=O)CN=C(c3cccs3)C=C21 [Example 5, 9-methoxy-2-(thiophen-2-yl)-7,8-dihydro-[1,4]diazepino[7,1-a]isoquinolin-5(4H)-one] | 15 | 44 | – | –
9 | COc1cc(C2=NCC(=O)N3CCc4c(Cl)cccc4C3=C2)ccn1 [Example 6, 9-chloro-2-(2-methoxypyridin-4-yl)-7,8-dihydro-[1,4]diazepino[7,1-a]isoquinolin-5(4H)-one] | 3050 | 75 | – | –
10 | COc1cccc2c1CCN1C(=O)CN=C(c3ccc(C)o3)C=C21 [Example 7, 9-methoxy-2-(5-methylfuran-2-yl)-7,8-dihydro-[1,4]diazepino[7,1-a]isoquinolin-5(4H)-one] | 210 | 24 | – | –
11 | COc1cc(C2=NCC(=O)N3CCc4c(OC)cccc4C3=C2)ccn1 [Example 8, 9-methoxy-2-(2-methoxypyridin-4-yl)-7,8-dihydro-[1,4]diazepino[7,1-a]isoquinolin-5(4H)-one] | 4900 | 22 | – | –
12 | COc1cccc(C2=NCC(=O)N3CCc4c(OC)cccc4C3=C2)n1 [Example 9, 9-methoxy-2-(6-methoxypyridin-2-yl)-7,8-dihydro-[1,4]diazepino[7,1-a]isoquinolin-5(4H)-one] | > 10000 | 600 | – | –
13 | CCc1cc(C2=NCC(=O)N3CCc4c(OC)cccc4C3=C2)ccn1 [Example 10, 2-(2-ethylpyridin-4-yl)-9-methoxy-7,8-dihydro-[1,4]diazepino[7,1-a]isoquinolin-5(4H)-one] | 940 | 345 | – | –
14 | COc1cccc2c1CCN1C(=O)CN=C(c3ccn(C)n3)C=C21 [Example 11, 9-methoxy-2-(1-methyl-1H-pyrazol-3-yl)-7,8-dihydro-[1,4]diazepino[7,1-a]isoquinolin-5(4H)-one] | 690 | 170 | – | –
15 | COCCOc1cccc(C2=NCC(=O)N3CCc4c(OC)cccc4C3=C2)c1 [Example 12, 9-methoxy-2-(3-(2-methoxyethoxy)phenyl)-7,8-dihydro-[1,4]diazepino[7,1-a]isoquinolin-5(4H)-one] | 1300 | 46 | – | –
16 | COc1cccc(C2=NCC(=O)N3CCc4c(ccc(Cl)c4OC)C3=C2)c1 [Example 13, 10-chloro-9-methoxy-2-(3-methoxyphenyl)-7,8-dihydro-[1,4]diazepino[7,1-a]isoquinolin-5(4H)-one] | 530 | 82 | – | –
17 | COc1cccc(C2=NCC(=O)N3CCc4c(OC)cc(Cl)cc4C3=C2)c1 [Example 14, 11-chloro-9-methoxy-2-(3-methoxyphenyl)-7,8-dihydro-[1,4]diazepino[7,1-a]isoquinolin-5(4H)-one] | > 10000 | 550 | – | –
18 | CCOc1cccc(C2=NCC(=O)N3C(=C2)c2cccc(OC)c2CC3C)c1 (stereo not drawn) [Example 15, 2-(3-ethoxyphenyl)-9-methoxy-7-methyl-7,8-dihydro-[1,4]diazepino[7,1-a]isoquinolin-5(4H)-one] | – | – | 42 | 44
19 | COc1cccc2c1CCN1C(=O)CN=C(c3cccc(C(F)(F)F)c3)C=C21 [Example 16, 9-methoxy-2-(3-(trifluoromethyl)phenyl)-7,8-dihydro-[1,4]diazepino[7,1-a]isoquinolin-5(4H)-one] | 3500 | 2200 | – | –
20 | COc1ccc(C2=NCC(=O)N3CCc4c(OC)cccc4C3=C2)cc1 [Example 17, 9-methoxy-2-(4-methoxyphenyl)-7,8-dihydro-[1,4]diazepino[7,1-a]isoquinolin-5(4H)-one] | > 10000 | 2200 | – | –
21 | COc1ccc(C)c(C2=NCC(=O)N3CCc4c(OC)cccc4C3=C2)c1 [Example 18, 9-methoxy-2-(5-methoxy-2-methylphenyl)-7,8-dihydro-[1,4]diazepino[7,1-a]isoquinolin-5(4H)-one] | > 10000 | 4100 | – | –
22 | O=C1CN=C(c2cccs2)C=C2c3cccc(F)c3CCN12 [Example 19, 9-fluoro-2-(thiophen-2-yl)-7,8-dihydro-[1,4]diazepino[7,1-a]isoquinolin-5(4H)-one] | 800 | 4500 | – | –
23 | COc1cccc(C2=NCC(=O)N3CCc4c(Br)cccc4C3=C2)c1 [Example 20, 9-bromo-2-(3-methoxyphenyl)-7,8-dihydro-[1,4]diazepino[7,1-a]isoquinolin-5(4H)-one] | 2800 | 1200 | – | –
24 | COc1cccc2c1CCN1C(=O)CN=C(c3ccnc(N(C)C)c3)C=C21 [Example 21, 2-(2-(dimethylamino)pyridin-4-yl)-9-methoxy-7,8-dihydro-[1,4]diazepino[7,1-a]isoquinolin-5(4H)-one] | 5200 | 3900 | – | –
25 | COc1cc(C2=NCC(=O)N3CCc4c(cccc4N4CCOCC4)C3=C2)ccn1 [Example 22, 2-(2-methoxypyridin-4-yl)-9-morpholino-7,8-dihydro-[1,4]diazepino[7,1-a]isoquinolin-5(4H)-one] | > 10000 | 71 | – | –
26 | Cc1ccc(C2=NCC(=O)N3CCc4c(cccc4N4CCOCC4)C3=C2)o1 [Example 23, 2-(5-methylfuran-2-yl)-9-morpholino-7,8-dihydro-[1,4]diazepino[7,1-a]isoquinolin-5(4H)-one] | > 10000 | 22 | – | –
27 | O=C1CN=C(n2cnc(C3CCC3)n2)C=C2c3cccc(-c4ccc(F)nc4)c3CCN12 [Example 99h, 2-(3-cyclobutyl-1H-1,2,4-triazol-1-yl)-9-(6-fluoropyridin-3-yl)-7,8-dihydro-[1,4]diazepino[7,1-a]isoquinolin-5(4H)-one] | – | 38 | – | –
